± gives the standard deviation of the averaged measurements.
What was measured:
Test in all cases: CTG-3D luminescence at 96 h relative to day-0 seeding control (ratio to day 0); higher = more growth / less cytotoxicity
HCI-011.E2 = test system: HCI-011.E2 (organoid from an ER-positive breast cancer xenograft)
Experimental: (§1)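 PDxO 3D drug screen (set 2), 8-point dose, 96 h; CTG-3D luminescence normalised to day-0 seeding control (mean of 4 wells each).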

HCI-019 = test system: HCI-019 (organoid from a triple-negative breast cancer xenograft)
Experimental: as §1

HCI-012 = test system: HCI-012 (organoid from a breast cancer xenograft)
Experimental: as §1

CC/C(=C(\c1ccc(O)cc1)c1ccc(OCCN(C)C)cc1)c1ccccc1 [4-hydroxytamoxifen]
HCI-011.E2
Settings	CTG-3D luminescence at 96 h
12.5 pM	1.35 ± 0.045
0.00025 µM	1.71 ± 0.016
0.005 µM	1.2 ± 0.19
0.1 µM	1.83 ± 0.028
1 µM	1.35 ± 0.27
10 µM	1.72 ± 0.56
100 µM	0.0138 ± 0.0032
625 fM	1.77 ± 0.041

CTG-3D luminescence at 96 h
Settings	12.5 pM	0.00025 µM	0.005 µM	0.1 µM	1 µM	10 µM	100 µM	625 fM
HCI-011.E2, days in culture: 74	2.1	1.95	2.01	2.04	1.63	1.31	-0.00194	2.23
HCI-012, days in culture: 214	3.56	3.14	1.65	2.13	2.18	0.301	0.00686	1.93
HCI-012, days in culture: 243	2.35	2.75	1.8	2.23	1.49	1.87	0.00753	2.29
HCI-012, days in culture: 256	1.59	1.79	2.4	3.03	2.03	1.01	-0.000283	2.33
HCI-012, days in culture: 284	2.11	2.32	1.6	2.02	1.71	1.47	0.00771	3.35
HCI-019, days in culture: 173	1.97	1.2	1.04	1.81	1.85	0.914	0.0117	1.34
HCI-019, days in culture: 194	1.24	0.815	2.23	0.96	2.13	0.944	0.00421	2.45
HCI-019, days in culture: 215	2.34	1.56	1.23	1.28	1.14	0.473	0.00476	1.5
